Measured values from US9834525B2, “Inhibitors of paxillin function and related compositions and methods” (UNIVERSITY OF TENNESSEE RESEARCH FOUNDATION, priority 2015, dated 2017).
Entries after “also recorded” stand apart in the source; their conditions may differ.

Tests used:
[1] = system: FAK (Y397, Y576/577, Y925); assay: Western blot of VEGF-induced FAK phosphorylation in REC; type: cell-based, human; details: REC under VEGF; compound (II-4) 500 nM, SU6656 1 μM
Protocol: REC, Mel 270, OMM 2.5 under Hepatocyte Growth Factor (HGF) or Vascular Endothelial Growth Factor (VEGF) stimulation conditions: Cell lysates were collected in RIPA lysis buffer (50 mM Tris-HCl, pH 7.4, 150 mM NaCl, 2 mM EDTA, 1% Nonidet P-40, 0.1% SDS) with protease 1× inhibitor cocktail (Roche; Indianapolis, Ind.). Lysates were kept on ice and centrifuged at 10,000×g×10 minutes and total protein was measured using the BCA assay (Pierce, Rockford, Ill.). Protein samples were mixed with 4×LDS loading buffer with 2.5% 2-mercaptoethanol (Sigma-Aldrich), heated to 70° C. for 10 minutes, and loaded on NuPAGE 4-12% Bis-Tris gel (Invitrogen, Carlsbad, Calif.). Immunoblotting was performed with nitrocellulose membranes (Bio-Rad, Hercules, Calif.) at 170-mA start and 110-mA end at 25 V for two hours in NuPAGE transfer buffer (Invitrogen) containing 20% methanol. Membranes were blocked using Odyssey blocking buffer (LI-COR; Lincoln, Nebr.) for one hour at room temperature with gentle shaking Membranes were then incubated at 4° C. with specific primary antibodies (1:1000) overnight. Cellular protein was normalized using rabbit-GAPDH or mouse-α-Tubulin [1:20,000] (Cell Signaling, Danvers, Mass.; LI-COR, respectively). […] Dual-channel infrared scan and quantitation of immunoblots were conducted using the ODYSSEY Sa infrared imaging system with Image Studio (Ver. 3.1.4) (LI-COR). […]

[2] = system: retinal endothelial cells (REC); assay: VEGF-induced REC proliferation, WST-1 metabolic assay; type: cell-based, human
Protocol: To investigate the potential of compound (II-4) affecting the proliferative capacity of RECs treated with VEGF, proliferation was measured using the metabolic assay based on the tetrazolium salt, WST-1. […] To rule out the possibility that this observation was related to cytotoxicity, RECs were incubated with a high concentration of compound (II-4) (1 μM) for 24 hours. Cells were harvested and apoptosis measured with Annexin-V/Propidium Iodide (PI) staining and analyzed using flow cytometry.
FIG. 18: REC Proliferation and Flow cytometry analysis of apoptosis in REC. A) VEGF-induced cellular proliferation was assessed using the WST-1 metabolic assay. […] (*P<0.0001). Nuclei were stained with DRAQ5 and imaged to show trend of decreasing proliferation. B) Apoptosis was measured using Annexin V/PI staining Compound (II-4) (1 μM) appears to be non-cytotoxic to retinal endothelial cells after 24 hour incubation (n≈10,000 cells).
FIG. 21: REC Proliferation. […] (*, # P<0.001; Mean±SD, N=8/group).

AKT in OMM 2.5 cells = assay: Western blot of pAKT/AKT in HGF-stimulated metastatic UM cells; type: cell-based, human; details: HGF-stimulated OMM 2.5 cells, harvest after 4 hrs
Protocol: REC, Mel 270, OMM 2.5 under Hepatocyte Growth Factor (HGF) or Vascular Endothelial Growth Factor (VEGF) stimulation conditions: Cell lysates were collected in RIPA lysis buffer (50 mM Tris-HCl, pH 7.4, 150 mM NaCl, 2 mM EDTA, 1% Nonidet P-40, 0.1% SDS) with protease 1× inhibitor cocktail (Roche; Indianapolis, Ind.). Lysates were kept on ice and centrifuged at 10,000×g×10 minutes and total protein was measured using the BCA assay (Pierce, Rockford, Ill.). Protein samples were mixed with 4×LDS loading buffer with 2.5% 2-mercaptoethanol (Sigma-Aldrich), heated to 70° C. for 10 minutes, and loaded on NuPAGE 4-12% Bis-Tris gel (Invitrogen, Carlsbad, Calif.). Immunoblotting was performed with nitrocellulose membranes (Bio-Rad, Hercules, Calif.) at 170-mA start and 110-mA end at 25 V for two hours in NuPAGE transfer buffer (Invitrogen) containing 20% methanol. […] Dual-channel infrared scan and quantitation of immunoblots were conducted using the ODYSSEY Sa infrared imaging system with Image Studio (Ver. 3.1.4) (LI-COR).
FIG. 16: Paxillin inhibition reduced pAKT signaling in metastatic UM cells. A, Representative Western Blot of total and phosphorylated paxillin in metastatic UM cells, as in FIG. 4A-B. B, Quantitation from n=3. […] Lysates were measured by Western Blot. […]

Pkd1 V/V mouse = assay: Dermal microemulsion delivery to Pkd1 cystic mice (ADPKD model); type: in vivo; details: dermal application as microemulsion, neonatal Pkd1 mice
Excerpt: Paxillin is abnormally expressed in cystic epithelial cells in a mouse model of ADPKD. […] For this reason, paxillin can be considered to act as a “rheostat” that can be targeted to curtail cystogenesis.
The paxillin inhibitor compound (II-4) inactivates phosphorylation at Y118 on paxillin using retinal endothelial cells. Compound (II-4) has been formulated as a microemulsion for non-invasive delivery to neonatal Pkd1 non-cystic and cystic mice and it has been observed that renal cystic disease was attenuated as measured by total kidney-to-body weight ratio.
FIG. 4: Paxillin in ADPKD kidneys. (A) Immunoblot of total paxillin in protein lysates from non-cystic Pkd1^+/+ (n=5) and cystic Pkd1^V/V (n=3) mouse kidneys at post-natal day 11 after 8 days of dermal application of compound (II-4) microemulsion solution. GAPDH was used as a loading control. Densitometry of the bands normalized to GAPDH is shown for (B) paxillin and (C) phospho-paxillin (C). * P<0.005 difference between groups.

COc1cc(C2OC(=O)Nc3c2ccc2ccccc32)cc(OC)c1OC (centres unmarked) [compound II-4]
VEGF-induced FAK activation (Y397, Y925) [1]: independent of both FAK Y397 autophosphorylation and Src-driven FAK Y925; also recorded: not FAK Y925 activation
VEGF-induced REC proliferation (FIG. 21) ([2]; Compound (II-4) (500 nM), LY294002 (1004), SU6656 (104), U0126 (104) [sic]): inhibited
VEGF-induced cellular proliferation (WST-1) ([2]; increasing concentrations of compound (II-4)): significant decrease; also recorded: significantly reduces cellular proliferation
pAKT/AKT (AKT in OMM 2.5 cells): significant reduction
renal cystic disease / cystic disease progression (total kidney-to-body weight ratio) (Pkd1 V/V mouse): functional reduction in cystic disease progression; also recorded: attenuated
